For assay [1], the target named is T1, CDK12/CycK complex (Homo sapiens, UniProt Q9NYV4). As to the kind of experiment: Measurement of CDK12 inhibitory activity by binding assay (TR-FRET, 66 nM BODIPY-FL-labeled AT-7519). The settings on record: inhibitory rate against CDK12 at 1 μM test compound, 66 nM BODIPY-FL-labeled AT-7519, 2 nM CDK12/CycK. As to the method: Experimental Example 1: CDK12 Binding Assay
(3) Measurement of CDK12 Inhibitory Activity by Binding Assay
(§1) His-tagged CDK12/CycK complex was added to a binding assay buffer supplemented with BODIPY-FL labeled AT-7519, terbium-labeled streptavidin and biotin-labeled anti-histidine antibody, and the mixture was stood for not less than 60 min at room temperature. This solution was added to an assay plate containing a test compound dispensed therein, and the mixture was left standing for 120 min at room temperature. The final concentration of CDK12/CycK complex, BODIPY-FL-labeled AT-7519, terbium-labeled streptavidin and biotin-labeled anti-histidine antibody was set to 2 nM, 66 nM, 0.2 nM, and 0.4 nM, respectively. The fluorescence intensity derived from terbium and BODIPY-FL was measured using Envision. The signal value of each well was determined using the TR-FRET ratio calculated by the following formula. TR-FRET ratio=(fluorescence value of BODIPY-FL)÷(fluorescence value of terbium)
(§2) The inhibitory rate (%) of the test compound against CDK12 was calculated by the following formula. Inhibitory rate (%)=(1−(TR-FRET ratio of test compound−blank)÷(control−blank))×100
The TR-FRET ratio of the CDK12 enzyme reaction mixture under compound non-addition conditions is indicated as control, and the TR-FRET ratio under 3 μM AT-7519 addition conditions is indicated as blank.
The inhibitory rate of the test compound against CDK12 at […] is shown below.
In general terms: In TR-FRET formats the signal depends on donor and acceptor labels being close together.

A further assay deals with CDK12/CycK enzyme (Homo sapiens, UniProt Q9NYV4). As to the kind of experiment: Measurement of CDK12/CycK inhibitory activity (ULight-4E-BP1 peptide phosphorylation, LANCE). It is filed as biochemical. The settings on record: inhibitory rate against CDK12/CycK at 1 μM test compound, ATP 10 μM or 500 μM. As to the method:
Experimental Example 2: Measurement of CDK12/CycK Inhibitory Activity
A test compound dissolved in DMSO was added to a reaction solution (50 mM HEPES (pH 7.5), 10 mM MgCl2, 1 mM DTT, 0.01% Tween 20, 0.01% BSA) containing CDK12/CycK enzyme and ULight-labeled eIF4E-binding protein 1 (4E-BP1) (Thr37/Thr46) peptide (PerkinElmer), and the mixture was reacted at room temperature for 60 min. […] was added to give an ATP solution with a final concentration of 10 μM or 500 μM to start the enzyme reaction, and the mixture was reacted at room temperature for 60 min. A LANCE Detection buffer (PerkinElmer) containing europium-labeled anti-phosphorylation 4E-BP1 (Thr37/Thr46) antibody (PerkinElmer) and EDTA (final concentration 10 mM) was added to discontinue the reaction. After standing for 60 min, time decomposition fluorescence value (excitation 320 nm, emission 615 nm, 665 nm) was measured by Envision (PerkinElmer). The inhibitory rate (%) of the test compound against CDK12/CyclinK was calculated by the following formula. Inhibitory rate (%)=(1−(count of test compound−blank)÷(control−blank))×100
The count of the CDK12 enzyme reaction mixture under compound non-addition conditions is indicated as control, and the count under compound non-addition and CDK12/CycK enzyme non-addition conditions is indicated as blank.
The results measured by the above-mentioned method (inhibitory rate (%) of the signal value at 1 μM test compound relative to control is shown below.

Assay [2] relates to A2780 intracellular CTD pSer2. As to the kind of experiment: CTD pSer2 measurement using human ovarian cancer cell A2780 and In-Cell Western method. The settings on record: inhibitory rate against A2780 intracellular CTD pSer2 at 1 μM test compound, 4 hr. It is filed as cell-based. As to the method:
Experimental Example 3: CTD pSer2 Measurement Using Human Ovarian Cancer Cell A2780 and In-Cell Western Method
A2780 cells (ATCC) were seeded in a 96 well plate at 1.8×10^4 cells/well, and the cells were cultured overnight in a cell culture medium RPMI1640 (FUJIFILM Wako Pure Chemical Corporation) containing 10% FBS (fetal bovine serum) and 1% penicillin/streptomycin. A test compound dissolved in a cell medium was added, and the mixture was stood for 4 hr in a CO2 incubator (37° C.). The cells were fixed with ALTFiX (Falma) for 30 min, and washed 3 times with a washing buffer (20 mM Tris-HCl (pH 7.5), 500 mM NaCl, 0.1% Tween20). 0.1% Triton-X-100 diluted with PBS(−) was added and the mixture was incubated at room temperature for 15 min. Thereafter, a blocking buffer (LI-COR) was added, and the mixture was incubated at room temperature for 1 hr. An anti-CTD pS2 antibody (Abcam) suspended in an antibody diluent (blocking buffer: PBS(−)-diluted 0.1% Tween20=1:1) was added, and the mixture was incubated at room temperature for 1 hr. The mixture was […] with a washing buffer, IRDye800CW-labeled anti-goat antibody (LI-COR) was added, and the mixture was incubated at room temperature for 1 hr. The mixture was washed 3 times with a washing buffer, and the fluorescence wavelength at 800 nm was measured by Aerius (LI-COR).
The inhibitory rate (%) of the test compound against A2780 intracellular CTD pSer2 was calculated by the following formula. Inhibitory rate (%)=(1−(count of test compound−blank)÷(control−blank))×100
The count of the A2780 cell under compound non-addition conditions is indicated as control, and the count under compound non-addition and primary antibody non-addition conditions is indicated as blank.
The results measured by the above-mentioned method (inhibitory rate of the signal value at 1 μM test compound relative to control) are shown below.

A further assay has as its system A2780 cells. As to the kind of experiment: In vitro proliferation suppression test (CellTiter-Glo). Type of assay: cell-based, human. The settings on record: Homo sapiens, 72 h, A2780 cell proliferation inhibitory rate at 1 μM test compound, three days. As to the method:
Experimental Example 4: In Vitro Proliferation Suppression Test
The proliferation suppressive activity of compound in A2780 cells was evaluated by the following method.
A2780 cells were seeded in a 384-well white plate at a cell density of 1,000 cells/40 μL/well or a 96-well white plate at a cell density of 1,000 cells/90 μL/well using an assay medium (RPMI1640 medium containing 10% fetal bovine serum (FUJIFILM Wako Pure Chemical Corporation)) and incubated at 37° C. in 5% CO2.
The next day, a test compound dissolved in dimethyl sulfoxide (DMSO) was diluted with an assay medium, the obtained compound solution was added by 40 μL/well or 10 μL/well to each well of the plate containing A2780 cells and the mixture was incubated (test compound addition group). In addition, a similar reaction was performed without adding the test compound (test compound non-addition group).
Three days later, 80 μL or 100 μL of CellTiter-Glo reagent (Promega) was added, and the mixture was stirred for 10 min. Thereafter, the luminescence of each well was measured by ARVO-MX multilabel counter (Perkin Elmer Inc.).
The proliferation inhibitory rate (%) of each test compound against A2780 cells was calculated by the following calculation formula. Proliferation inhibitory rate (%)=(1−luminescence of test compound addition group÷luminescence of test compound non-addition group)×100
The A2780 cell proliferation inhibitory rate (%) of 1 μM test compound is shown below.
(Cellular ATP, detected with luciferase, serves as a proxy for viable cell number.)

The target in assay [3] is T1, CDK12/CycK complex. The experiment in a line: Measurement of CDK12 inhibitory activity by binding assay (BODIPY-FL labeled AT-7519 high concentration conditions, 1320 nM). The settings on record: inhibitory rate against CDK12 at 1 μM test compound, 1320 nM BODIPY-FL-labeled AT-7519, 8 nM CDK12/CycK. The procedure: (4) Measurement of CDK12 Inhibitory Activity by Binding Assay (BODIPY-FL Labeled AT-7519 High Concentration Conditions)
as §1, with “complex was blended with a binding” for “complex was added to a binding”, “biotin-labeled anti-histidine antibody. This solution” for “biotin-labeled anti-histidine antibody, and the mixture was stood for not less than 60 min at room temperature. This solution”, “set to 8 nM, 1320” for “set to 2 nM, 66”, “8 nM, 1320 nM, 0.2” for “2 nM, 66 nM, 0.2”
as §2
The TR-FRET ratio of the CDK12 enzyme reaction mixture under compound non-addition conditions is indicated as control, and the TR-FRET ratio under 30 μM AT-7519 addition conditions is indicated as blank.
The inhibitory rate of the test compound against CDK12 at 1 μM is shown below.

For orientation: inhibition means the drop in the measured response relative to a control, in per cent.

T1 sequence (Q9NYV4 whole entry, species assumed): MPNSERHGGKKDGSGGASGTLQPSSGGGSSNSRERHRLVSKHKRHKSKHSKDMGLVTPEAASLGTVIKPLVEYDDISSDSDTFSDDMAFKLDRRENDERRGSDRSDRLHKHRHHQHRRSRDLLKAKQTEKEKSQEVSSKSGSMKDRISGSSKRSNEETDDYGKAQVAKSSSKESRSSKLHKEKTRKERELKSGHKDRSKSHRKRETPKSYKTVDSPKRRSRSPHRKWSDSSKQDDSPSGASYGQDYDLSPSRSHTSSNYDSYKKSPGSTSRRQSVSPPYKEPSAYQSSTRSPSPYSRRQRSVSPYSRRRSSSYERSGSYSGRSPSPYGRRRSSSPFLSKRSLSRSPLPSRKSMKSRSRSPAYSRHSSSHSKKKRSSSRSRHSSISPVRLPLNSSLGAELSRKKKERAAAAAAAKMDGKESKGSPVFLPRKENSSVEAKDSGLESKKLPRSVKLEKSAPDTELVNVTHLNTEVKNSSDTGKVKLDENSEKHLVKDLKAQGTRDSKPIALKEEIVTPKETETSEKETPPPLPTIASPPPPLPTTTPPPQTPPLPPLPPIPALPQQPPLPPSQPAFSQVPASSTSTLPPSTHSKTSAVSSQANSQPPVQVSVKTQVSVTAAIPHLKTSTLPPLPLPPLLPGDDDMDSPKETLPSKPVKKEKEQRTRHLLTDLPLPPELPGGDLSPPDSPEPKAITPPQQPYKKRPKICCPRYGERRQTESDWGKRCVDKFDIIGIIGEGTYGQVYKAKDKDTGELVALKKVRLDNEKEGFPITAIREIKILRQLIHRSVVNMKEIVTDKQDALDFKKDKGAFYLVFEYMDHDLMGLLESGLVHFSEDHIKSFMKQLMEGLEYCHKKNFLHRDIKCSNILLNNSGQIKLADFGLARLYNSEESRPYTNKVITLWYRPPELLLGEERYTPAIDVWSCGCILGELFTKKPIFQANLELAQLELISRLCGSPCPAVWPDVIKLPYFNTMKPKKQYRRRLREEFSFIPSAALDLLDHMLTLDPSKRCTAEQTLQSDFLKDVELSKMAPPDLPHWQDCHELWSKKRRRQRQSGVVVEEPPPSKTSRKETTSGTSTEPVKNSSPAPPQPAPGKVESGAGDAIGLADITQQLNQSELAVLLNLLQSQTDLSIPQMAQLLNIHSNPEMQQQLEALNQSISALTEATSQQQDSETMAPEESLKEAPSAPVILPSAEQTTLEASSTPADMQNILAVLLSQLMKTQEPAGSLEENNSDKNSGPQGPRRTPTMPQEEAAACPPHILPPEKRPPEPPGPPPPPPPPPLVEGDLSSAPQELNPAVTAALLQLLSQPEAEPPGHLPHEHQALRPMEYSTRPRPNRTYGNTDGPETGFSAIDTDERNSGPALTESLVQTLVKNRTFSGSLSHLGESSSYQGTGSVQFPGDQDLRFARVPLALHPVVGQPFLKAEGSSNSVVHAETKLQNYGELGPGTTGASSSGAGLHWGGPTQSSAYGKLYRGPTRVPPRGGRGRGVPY
T1 sequence (O75909 whole entry partner, species assumed): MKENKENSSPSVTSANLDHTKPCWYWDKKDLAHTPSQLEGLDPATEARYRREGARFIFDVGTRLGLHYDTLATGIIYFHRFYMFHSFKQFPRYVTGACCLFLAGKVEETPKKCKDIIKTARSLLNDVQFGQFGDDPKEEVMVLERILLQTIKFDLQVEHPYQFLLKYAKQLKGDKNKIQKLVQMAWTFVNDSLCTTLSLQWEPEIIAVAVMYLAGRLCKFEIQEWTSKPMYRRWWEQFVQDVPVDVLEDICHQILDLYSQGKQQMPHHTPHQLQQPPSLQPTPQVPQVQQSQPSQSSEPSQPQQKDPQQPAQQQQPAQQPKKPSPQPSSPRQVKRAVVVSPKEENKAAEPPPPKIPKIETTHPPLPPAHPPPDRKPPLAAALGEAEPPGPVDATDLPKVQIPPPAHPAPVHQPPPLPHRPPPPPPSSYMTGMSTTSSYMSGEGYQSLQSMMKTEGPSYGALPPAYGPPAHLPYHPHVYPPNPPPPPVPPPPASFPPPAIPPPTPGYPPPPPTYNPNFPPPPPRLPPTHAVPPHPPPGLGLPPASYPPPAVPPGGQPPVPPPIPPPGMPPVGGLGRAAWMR
Chain of CDK12/CycK enzyme (Q9NYV4 whole entry, species assumed): as the sequence (Q9NYV4 whole entry, species assumed) above
Chain of CDK12/CycK enzyme (O75909 whole entry partner, species assumed): as the sequence (O75909 whole entry partner, species assumed) above

With `Cn1cc(-c2ccc(N(C(=O)NCc3ccccc3)[C@H]3CC[C@H](Nc4ncc(C(F)(F)F)c(NC5COC5)n4)CC3)nc2)cn1` [Example 574, 3-benzyl-1-(5-(1-methyl-1H-pyrazol-4-yl)pyridin-2-yl)-1-(trans-4-((4-(oxetan-3-ylamino)-5-(trifluoromethyl)pyrimidin-2-yl)amino)cyclohexyl)urea], the inhibition at 1 µM at CDK12/CycK complex [1] is 103%; on CDK12/CycK enzyme, 99%; in assay [2], 83%; in the assay with A2780 cells it was 97%.

Take `Cn1cc(-c2ccc(N(C(=O)NCc3ccccc3)[C@H]3CC[C@H](Nc4ncc(C(F)(F)F)c(N5CCC6(COC6)C5)n4)CC3)nc2)cn1` [Example 566, 3-benzyl-1-(5-(1-methyl-1H-pyrazol-4-yl)pyridin-2-yl)-1-(trans-4-((4-(2-oxa-6-azaspiro[3.4]octa-6-yl)-5-(trifluoromethyl)pyrimidin-2-yl)amino)cyclohexyl)urea]: the inhibition at 1 µM turned out to be 102% on CDK12/CycK complex [1], 100% against CDK12/CycK enzyme, 72% in assay [2] and 98% in the assay with A2780 cells.

Take `COc1ncc(-c2ccc(N(C(=O)NCC(F)(F)F)[C@H]3CC[C@H](Nc4ncc(C(F)(F)F)c(-c5n[nH]cc5Cl)n4)CC3)nc2)cn1` [Example 729, 1-(trans-4-((4-(4-chloro-1H-pyrazol-3-yl)-5-(trifluoromethyl)pyrimidin-2-yl)amino)cyclohexyl)-1-(5-(2-methoxypyrimidin-5-yl)pyridin-2-yl)-3-(2,2,2-trifluoroethyl)urea]: the values for the inhibition at 1 µM on CDK12/CycK complex [3] and in the assay on A2780 cells were 92% and 98%, respectively.

Take `COc1ncc(-c2cnc(N(C(=O)NCC(F)(F)F)[C@H]3CC[C@H](Nc4ncc(C(F)(F)F)c(-c5n[nH]cc5Cl)n4)CC3)cn2)cn1` [Example 743, 1-(trans-4-((4-(4-chloro-1H-pyrazol-3-yl)-5-(trifluoromethyl)pyrimidin-2-yl)amino)cyclohexyl)-1-(5-(2-methoxypyrimidin-5-yl)pyrazin-2-yl)-3-(2,2,2-trifluoroethyl)urea]: the inhibition at 1 µM at CDK12/CycK complex [3] turned out to be 81%; with A2780 cells, 95%.

In the case of `COc1ncc(-c2cnc(N(C(=O)CCC(F)F)[C@H]3CC[C@H](Nc4ncc(C(F)(F)F)c(-c5cncc(S(C)(=O)=O)c5)n4)CC3)cn2)cn1` [Example 826, 4,4-difluoro-N-(trans-4-((4-(5-(methanesulfonyl)pyridin-3-yl)-5-(trifluoromethyl)pyrimidin-2-yl)amino)cyclohexyl)-N-(5-(2-methoxypyrimidin-5-yl)pyrazin-2-yl)butanamide], the inhibition at 1 µM turned out to be 106% on CDK12/CycK complex [3] and 98% in the assay on A2780 cells.

With `CCNC(=O)N(c1cnc(-c2cnc(OC)nc2)cn1)[C@H]1CC[C@H](Nc2ncc(C(F)(F)F)c(-c3cncc(S(C)(=O)=O)c3)n2)CC1` [Example 799, 3-ethyl-1-(trans-4-((4-(5-(methanesulfonyl)pyridin-3-yl)-5-(trifluoromethyl)pyrimidin-2-yl)amino)cyclohexyl)-1-(5-(2-methoxypyrimidin-5-yl)pyrazin-2-yl)urea], the inhibition at 1 µM came to 96% at CDK12/CycK complex [3] and 99% in the assay with A2780 cells.

In the case of `COc1ncc(-c2cnc(N(C(=O)OCC(C)(C)O)[C@H]3CC[C@H](Nc4ncc(C(F)(F)F)c(-c5n[nH]cc5Cl)n4)CC3)cn2)cn1` [Example 841, 2-hydroxy-2-methylpropyl (trans-4-((4-(4-chloro-1H-pyrazol-3-yl)-5-(trifluoromethyl)pyrimidin-2-yl)amino)cyclohexyl) (5-(2-methoxypyrimidin-5-yl)pyrazin-2-yl)carbamate], the values for the inhibition at 1 µM at CDK12/CycK complex [3] and in the assay on A2780 cells were 79% and 99%, respectively.

As for `COc1ncc(-c2ccc(N(C(=O)NCC(C)(C)O)[C@H]3CC[C@H](Nc4ncc(C(F)(F)F)c(-c5ccn(C(F)F)n5)n4)CC3)nc2)cn1` [Example 849, 1-(trans-4-((4-(1-(difluoromethyl)-1H-pyrazol-3-yl)-5-(trifluoromethyl)pyrimidin-2-yl)amino)cyclohexyl)-3-(2-hydroxy-2-methylpropyl)-1-(5-(2-methoxypyrimidin-5-yl)pyridin-2-yl)urea], the inhibition at 1 µM on CDK12/CycK complex [3] turned out to be 110%; with A2780 cells, 97%.

The record behind these values is US11584737B2, “Heterocyclic compound” (TAKEDA PHARMACEUTICAL COMPANY LIMITED, priority 2018, dated 2023).
